Results: patent US10590113B2, “6-hydroxy-4-oxo-1,4-dihydropyrimidine-5-carboxamides as APJ agonists” (priority 2016, dated 2020)

Each compound was assayed against T1, human APJ receptor (Homo sapiens, UniProt P35414) (assay: Intracellular cAMP Accumulation Assay (APJ hcAMP, HTRF)). Conditions: human APJ, intracellular cAMP accumulation; read-out: hAPJ cAMP EC50 Potency range.
T1 construct: expressed in transfected cells; host or cells: HEK293
T1 sequence (P35414 1-380): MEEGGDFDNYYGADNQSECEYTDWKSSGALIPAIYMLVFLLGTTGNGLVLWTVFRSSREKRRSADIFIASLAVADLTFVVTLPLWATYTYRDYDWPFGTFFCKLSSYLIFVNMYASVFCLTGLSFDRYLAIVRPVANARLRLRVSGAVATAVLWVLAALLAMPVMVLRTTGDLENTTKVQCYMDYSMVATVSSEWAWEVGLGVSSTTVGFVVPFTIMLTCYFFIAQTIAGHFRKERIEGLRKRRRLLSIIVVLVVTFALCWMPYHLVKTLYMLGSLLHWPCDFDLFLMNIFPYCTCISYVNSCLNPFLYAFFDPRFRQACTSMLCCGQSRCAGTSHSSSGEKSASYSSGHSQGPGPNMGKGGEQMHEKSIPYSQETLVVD
Format: cell-based
Protocol: Intracellular cAMP Accumulation Assay
HEK293 cells stably expressing human APJ receptor were used to assess the activity of compounds. Cultured cells were detached and resuspended in the cAMP
Homogeneous Time-Resolved Fluorescence (HTRF) assay buffer (Cisbio cat; #62AM4PEJ). The assay was performed in 384-well assay plates (Perkin-Elmer; cat #6008289) according to assay protocol provided by the manufacturer. Serial dilutions of a compound together with assay buffer containing […] IBMX and 2 μM forskolin were added to each well containing 5,000 cells and incubated for 30 minutes at room temperature. Subsequently, cAMP D2 reagent was added in the lysis buffer followed by the EuK antibody (Cisbio; cat #62AM4PEJ) and incubated for 60 min. The fluorescence emission ratio was measured using fluorometer. The intracellular cAMP concentrations (compound-stimulated inhibition of forskolin-mediated cAMP production) were calculated by extrapolation from a standard curve using known cAMP concentrations. The EC50 values were obtained by fitting the data to a sigmoidal concentration-response curve with variable slope.
The EC50 value of each compound is presented at the end of the example description.
The biological activity of the exemplified compounds of this invention determined by the assay described above is shown at the end of each example.

EC50, 0.01 to 10 nM:
COc1cccc(OC)c1-n1c(COC(C)C)nc(=O)c(C(=O)N2CCC(c3ccccc3C)C2)c1O (single isomer, unassigned) [Example 98, 1-(2,6-dimethoxyphenyl)-6-hydroxy-5-[3-(2-methylphenyl)pyrrolidine-1-carbonyl]-2-[(propan-2-yloxy)methyl]-1,4-dihydropyrimidin-4-one]
COc1cccc(OC)c1-n1c(COC(C)C)nc(=O)c(C(=O)N2CCC(c3ccccc3C(F)(F)F)C2)c1O (single isomer, unassigned) [Example 99, 1-(2,6-dimethoxyphenyl)-6-hydroxy-2-[(propan-2-yloxy)methyl]-5-{3-[2-(trifluoromethyl)phenyl]pyrrolidine-l-carbonyl}-1,4-dihydropyrimidin-4-one]
COc1cccc(OC)c1-n1c(COC2CC2)nc(=O)c(C(=O)N2CCC(c3ccc(F)cc3)C2)c1O (single isomer, unassigned) [Example 100, 2-(cyclopropoxymethyl)-1-(2,6-dimethoxyphenyl)-5-[3-(4-fluorophenyl)pyrrolidine-1-carbonyl]-6-hydroxy-1,4-dihydropyrimidin-4-one]
COc1cccc(OC)c1-n1c(COC(C)C)nc(=O)c(C(=O)N2CCC(c3ccccc3C(F)(F)F)C2)c1O (single isomer, unassigned) [Example 101, 1-(2,6-dimethoxyphenyl)-6-hydroxy-2-[(propan-2-yloxy)methyl]-5-{3-[2-(trifluoromethyl)phenyl]pyrrolidine-1-carbonyl}-1,4-dihydropyrimidin-4-one]
COc1cccc(OC)c1-n1c(COC(C)C)nc(=O)c(C(=O)N2CCC(c3ccc(F)cc3)C2)c1O (single isomer, unassigned) [Example 102, 1-(2,6-dimethoxyphenyl)-5-[3-(4-fluorophenyl)pyrrolidine-1-carbonyl]-6-hydroxy-2-[(propan-2-yloxy)methyl]-1,4-dihydropyrimidin-4-one]
COc1cccc(OC)c1-n1c(COC2CC2)nc(=O)c(C(=O)N2CCC(c3ccc(F)cc3)C2)c1O (single isomer, unassigned) [Example 103, 2-(cyclopropoxymethyl)-1-(2,6-dimethoxyphenyl)-5-[3-(4-fluorophenyl)pyrrolidine-1-carbonyl]-6-hydroxy-1,4-dihydropyrimidin-4-one]
COc1cccc(OC)c1-n1c(COC(C)C)nc(=O)c(C(=O)N2CCC(c3ccccc3C)C2)c1O (single isomer, unassigned) [Example 105, 1-(2,6-dimethoxyphenyl)-6-hydroxy-5-[3-(2-methylphenyl)pyrrolidine-1-carbonyl]-2-[(propan-2-yloxy)methyl]-1,4-dihydropyrimidin-4-one]
COc1cccc(OC)c1-n1c(COC(C)C)nc(=O)c(C(=O)N2CCC(c3ccc(C#N)cc3)C2)c1O (single isomer, unassigned) [Example 107, 4-{1-[1-(2,6-dimethoxyphenyl)-6-hydroxy-4-oxo-2-[(propan-2-yloxy)methyl]-1,4-dihydropyrimidine-5-carbonyl]pyrrolidin-3-yl}benzonitrile]
COc1cccc(OC)c1-n1c(COC(C)C)nc(=O)c(C(=O)N2CCC(c3ccc(C#N)cc3)C2)c1O (single isomer, unassigned) [Example 108, 4-{1-[1-(2,6-dimethoxyphenyl)-6-hydroxy-4-oxo-2-[(propan-2-yloxy)methyl]-1,4-dihydropyrimidine-5-carbonyl]pyrrolidin-3-yl}benzonitrile]
CCCCc1nc(=O)c(C(=O)N2CCC(c3cccc(F)c3)C2)c(O)n1[C@@H](CC)c1ccccc1 (single isomer, unassigned) [Example 115]
CCCCc1nc(=O)c(C(=O)N2CCC(c3cccc(F)c3)C2)c(O)n1[C@@H](CC)c1ccccc1 (single isomer, unassigned) [Example 119]
COc1ccccc1C1CCN(C(=O)c2c(O)n(-c3c(OC)cccc3OC)c(COC(C)C)nc2=O)C1 (single isomer, unassigned) [Example 160, 1-(2,6-dimethoxyphenyl)-6-hydroxy-5-[3-(2-methoxyphenyl)pyrrolidine-1-carbonyl]-2-[(propan-2-yloxy)methyl]-1,4-dihydropyrimidin-4-one]
COc1ccccc1C1CCN(C(=O)c2c(O)n(-c3c(OC)cccc3OC)c(COC(C)C)nc2=O)C1 (single isomer, unassigned) [Example 161, 1-(2,6-dimethoxy-phenyl)-6-hydroxy-5-[3-(2-methoxy-phenyl)pyrrolidine-1-carbonyl]-2-[(propan-2-yloxy)methyl]-1,4-dihydropyrimidin-4-one]
COc1cccc(OC)c1-n1c(COC(C)C)nc(=O)c(C(=O)N2CCC(c3ccc(F)cc3F)C2)c1O (single isomer, unassigned) [Example 162, 5-[3-(2,4-difluorophenyl)pyrrolidine-1-carbonyl]-1-(2,6-dimethoxyphenyl)-6-hydroxy-2-[(propan-2-yloxy)methyl]-1,4-dihydropyrimidin-4-one]
COc1cccc(OC)c1-n1c(COC(C)C)nc(=O)c(C(=O)N2CCC(c3ccc(F)cc3F)C2)c1O (single isomer, unassigned) [Example 163, 5-[3-(2,4-difluorophenyl)pyrrolidine-1-carbonyl]-1-(2,6-dimethoxyphenyl)-6-hydroxy-2-[(propan-2-yloxy)methyl]-1,4-dihydropyrimidin-4-one]
COc1cccc(OC)c1-n1c(COC(C)C)nc(=O)c(C(=O)N2CCC(c3c(F)cccc3F)C2)c1O (single isomer, unassigned) [Example 164, 5-[3-(2,6-difluorophenyl)pyrrolidine-1-carbonyl]-1-(2,6-dimethoxyphenyl)-6-hydroxy-2-[(propan-2-yloxy)methyl]-1,4-dihydropyrimidin-4-one]
COc1cccc(OC)c1-n1c(COC(C)C)nc(=O)c(C(=O)N2CCC(c3ccccc3C#N)C2)c1O (single isomer, unassigned) [Example 165, 2-{1-[1-(2,6-dimethoxyphenyl)-6-hydroxy-4-oxo-2-[(propan-2-yloxy)methyl]-1,4-dihydropyrimidine-5-carbonyl]pyrrolidin-3-yl}benzonitrile]
COc1cccc(OC)c1-n1c(COC(C)C)nc(=O)c(C(=O)N2CCC(c3c(F)cccc3F)C2)c1O (single isomer, unassigned) [Example 166, 5-[3-(2,6-difluorophenyl)pyrrolidine-1-carbonyl]-1-(2,6-dimethoxyphenyl)-6-hydroxy-2-[(propan-2-yloxy)methyl]-1,4-dihydropyrimidin-4-one]
COc1cccc(OC)c1-n1c(COC(C)C)nc(=O)c(C(=O)N2CCC(c3ccccc3C#N)C2)c1O (single isomer, unassigned) [Example 167]
COc1cccc(OC)c1-n1c(CCC2CC2)nc(=O)c(C(=O)N2CCC(c3ncc(F)cc3F)C2)c1O (single isomer, unassigned) [Example 168, 2-(2-cyclopropylethyl)-5-[3-(3,5-difluoropyridin-2-yl)pyrrolidine-1-carbonyl]-1-(2,6-dimethoxyphenyl)-6-hydroxy-1,4-dihydropyrimidin-4-one]
COc1cccc(OC)c1-n1c(CCC2CC2)nc(=O)c(C(=O)N2CCC(c3ncc(F)cc3F)C2)c1O (single isomer, unassigned) [Example 169, 2-(2-cyclopropylethyl)-5-[3-(3,5-difluoropyridin-2-yl)pyrrolidine-1-carbonyl]-1-(2,6-dimethoxyphenyl)-6-hydroxy-1,4-dihydropyrimidin-4-one]
COc1cccc(OC)c1-n1c(CCC2CC2)nc(=O)c(C(=O)N2CCC(c3ccc(Cl)cn3)C2)c1O (single isomer, unassigned) [Example 170, 5-[3-(5-chloropyridin-2-yl)pyrrolidine-1-carbonyl]-2-(2-cyclopropylethyl)-1-(2,6-dimethoxyphenyl)-6-hydroxy-1,4-dihydropyrimidin-4-one]
COc1cccc(OC)c1-n1c(CCC2CC2)nc(=O)c(C(=O)N2CCC(c3ccc(Cl)cn3)C2)c1O (single isomer, unassigned) [Example 171, 5-[3-(5-chloropyridin-2-yl)pyrrolidine-1-carbonyl]-2-(2-cyclopropylethyl)-1-(2,6-dimethoxyphenyl)-6-hydroxy-1,4-dihydropyrimidin-4-one]
